Laboratory results: ChEMBL document CHEMBL5724558, “Image-based profiling of drug vulnerabilities in CRC organoids” (2024)
Values joined by “and” are separate entries in the source; they are usually repeats but may differ in a detail not shown here. Equal entries are not always repeated.

Columns and labels:
Format in all cases: functional, Homo sapiens
Set-up in all cases: dose or concentration left out as unconfirmed
Colon cancer organoid [1] = assay: (§1) Image-based profiling of donated chemical probes and chemogenomic kinase set in O06 CRC organoid. Image analysis is performed on the sum area metric, and the data were normalized to the DMSO control. After imaging the organoid viability is measured using the OneGloEX Luciferase Assay System. The normalized viability data and sum area are reported.
Colon cancer organoid [2] = assay: as §1, with “O09” for “O06”
Colon cancer organoid [3] = assay: as §1, with “O21” for “O06”

SMILES	Cell Viability (Colon cancer organoid [1]; Replication number 1)	Cell Viability (Colon cancer organoid [1]; Replication number 2)	Cell Viability (Colon cancer organoid [2]; Replication number 1)	Cell Viability (Colon cancer organoid [2]; Replication number 2)	Cell Viability (Colon cancer organoid [3]; Replication number 1)	Cell Viability (Colon cancer organoid [3]; Replication number 2)
O=C(NCc1ccccc1)c1ccc(S(=O)(=O)NCc2ccccc2)cc1	187.548% and 135.666%	115.38% and 119.884%	92.4038% and 93.7908%	103.22% and 86.1192%	112.801% and 110.51%	91.6281% and 94.6419%
Cc1c(NC(=O)COc2ccc(Cl)cc2C(=O)c2cc(F)cc(C(F)(F)F)c2)ccc(C(=O)O)c1F [BI 2540]	58.8741% and 96.3504%	87.0416% and 104.656%	121.956% and 104.432%	133.179% and 113.341%	96.7046% and 115.044%	105.62% and 95.2087%
CN(C)C(=O)Cn1cc(-c2ccc(-c3cncc4ccccc34)cc2)cn1	73.9778% and 127.973%	75.2678% and 99.5373%	314.332% and 120.679%	170.131% and 105.821%	132.258% and 129.895%	113.21% and 111.119%
CN1CCN(C(=O)C(C)(C)c2ccc(C(=O)Nc3cn4cc(-c5ccncc5)ccc4n3)cc2)CC1 [T3-CLK]	42.3595% and 97.4239%	42.5998% and 77.939%	41.227% and 51.6061%	31.6537% and 31.5444%	57.8975% and 103.622%	54.6627% and 104.082%
CCC(=O)Nc1cccc(Oc2nc(Nc3ccc(N4CCN(C)CC4)cc3OC)ncc2Cl)c1	127.075% and 113.507%	91.2646% and 89.6658%	45.1468% and 48.3715%	57.9255% and 59.3892%	76.6045% and 88.0836%	80.6193% and 93.271%
CC(=O)c1cc(-c2ccccc2OCC2CC2)c2ncccn12	193.281% and 129.503%	159.696% and 98.6989%	135.678% and 108.037%	170.672% and 99.2081%	119.426% and 104.637%	103.612% and 93.9737%
O=C1CCc2cc(Nc3cc(OC4CCOCC4)c([N+](=O)[O-])cc3Cl)ccc2N1	92.8758% and 110.539%	96.13% and 100.681%	197.242% and 145.978%	128.806% and 115.663%	105.584% and 104.204%	94.4034% and 103.061%
CC(C)Oc1ccc(-c2c[nH]cc2CN(C)CCN)cc1	21.9267% and 37.2081%	18.5621% and 35.8471%	64.4727% and 62.1329%	85.7978% and 86.9496%	91.7863% and 65.8393%	93.2232% and 70.8831%
Cn1cc(-c2ccc3occ(-c4cccc(-c5ccncc5)c4)c3n2)cn1	105.822% and 114.901%	68.0406% and 107.425%	82.6672% and 85.8718%	87.0318% and 75.2306%	96.3699% and 105.976%	129.888% and 115.611%
CN(C)CCOc1ccc(-c2nc(-c3ccncc3)c(-c3ccc4c(c3)CC/C4=N\O)[nH]2)cc1 [SB590885]	179.76% and 135.095%	115.548% and 114.756%	91.6254% and 70.3132%	62.6087% and 63.1686%	87.754% and 100.348%	97.8507% and 97.8769%
CC(C)(O)c1cncc(-c2nc3ccc(F)cc3n2C2CC2)c1 [MSD-CYP11B2]	79.0545% and 113.441%	106.294% and 130.706%	85.3446% and 107.103%	121.971% and 103.489%	108.022% and 122.772%	100.134% and 120.326%
Cc1c(Nc2ccc(S(=O)(=O)N3CCN(C)CC3)cc2F)nc2ccc(Nc3cnn(C4CC4)c3)cn2c1=O	183.611% and 128.295%	165.181% and 157.488%	89.3145% and 89.49%	245.21% and 122.015%	116.907% and 92.8805%	82.2867% and 96.1217%
Cc1ncsc1-c1ccc(CNC(=O)[C@@H]2C[C@@H](O)CN2C(=O)[C@@H](NC(=O)CCCCNC(=O)c2ccc(-c3ccc(N4CCN(C)CC4)c(NC(=O)c4c[nH]c(=O)cc4C(F)(F)F)c3)cc2)C(C)(C)C)cc1	127.591% and 97.9274%	138.236% and 103.65%	189.737% and 102.727%	128.896% and 122.558%	88.0354% and 100.906%	93.0619% and 103.634%
Clc1cccc(-c2nnnn2Cc2cccnc2)c1Cl	110.934% and 130.913%	90.04% and 81.9662%	192.597% and 128.776%	120.929% and 99.0142%	103.002% and 95.4722%	106.874% and 109.184%
COCC(=O)NC/C=C/c1ccc2ncnc(Nc3ccc(Oc4ccc(C)nc4)c(C)c3)c2c1 [CP-724714]	34.9461% and 62.9851%	41.6567% and 67.0437%	68.0715% and 78.0427%	150.035% and 112.57%	88.8144% and 89.7561%	117.053% and 106.513%
CCN(C(=O)CO)[C@H]1CN(/C(=N\C#N)Nc2cccc(OC(F)F)c2)N=C1c1ccc(Cl)c(Cl)c1	122.514% and 121.772%	131.133% and 123.792%	95.5807% and 90.881%	163.22% and 117.738%	56.7523% and 64.6636%	98.5958% and 108.473%
Cn1c(-c2csc(C3CCN(CC4=NC5N=CC=CC5N4)CC3)n2)nc2ccccc21 (centres undefined) [BAY-070]	51.6449% and 96.9231%	54.618% and 76.4056%	60.3085% and 58.8971%	70.2327% and 76.9231%	109.219% and 99.8545%	106.656% and 102.481%
CCCCN(CCCC)C(=O)CN1C[C@@H](c2cc(OC)c3c(c2)OCO3)[C@H](C(=O)O)[C@H]1CC(C)(C)CCC [A-545]	97.8309% and 86.6511%	75.1695% and 72.7273%	137.08% and 104.407%	151.031% and 114.494%	100.23% and 87.9043%	101.691% and 84.1837%
C=CC(=O)Nc1cccc(C(=O)Nc2ccc(Nc3cc(-c4[nH]c(SC)nc4C)ccn3)cc2)c1	120.545% and 116.4%	120.557% and 114.139%	195.827% and 119.682%	254.944% and 117.159%	87.1744% and 91.9861%	133.203% and 116.877%
N#CN1CC[C@@H](C(=O)Nc2nc3c(s2)CN(C(=O)CN=[N+]=[N-])CC3)C1 [JYQ88]	45.8886% and 74.332%	68.3691% and 90.3412%	58.2871% and 66.775%	121.196% and 102.102%	106.224% and 86.2132%	132.659% and 94.3236%
CC(C)(C)OC(=O)N1CCCC1CNC1CCC(c2cc(F)ccc2F)(S(=O)(=O)c2ccc(Cl)cc2)CC1 (centres undefined) [GSI-NC]	66.8797% and 82.4356%	76.3317% and 68.2262%	125.581% and 90.7884%	108.329% and 85.8708%	89.6265% and 62.8719%	87.5663% and 80.102%
Cc1ccc2[nH]c(CNCCCc3ccncc3)cc(=O)c2c1 [UCSF924NC]	91.5293% and 106.883%	122.187% and 128.063%	130.653% and 96.5987%	94.8728% and 93.7748%	94.0995% and 104.765%	78.5864% and 74.4392%
COc1cc2c(cc1NS(=O)(=O)c1ccc(Br)cc1C)n(C)c(=O)n2C	85.4589% and 143.275%	107.386% and 104.912%	82.8669% and 66.0742%	161.71% and 111.182%	90.5613% and 147.551%	87.5695% and 113.305%
O=C(CCCCCCNC(=O)c1cnc(N(c2ccccc2)c2ccccc2)nc1)NO [RICOLINOSTAT]	107.943% and 108.966%	120.178% and 118.056%		236.119% and 135.984%	136.698% and 150.49%	122.116% and 112.232%
COc1ccc2c(O[C@@H]3C[C@H]4C(=O)N[C@]5(C(=O)O)CC5/C=C\CCCCC[C@H](NC(=O)OC5CCCC5)C(=O)N4C3)cc(-c3csc(NC(=O)C(C)C)n3)nc2c1C (some centres undefined) [BI 1230]	145.195% and 153.864%	115.735% and 122.476%	106.493% and 128.298%	89.1059% and 82.6579%	91.3171% and 103.622%	114.827% and 120.408%
Cc1cnc(Nc2ccc(F)cc2Cl)nc1-c1c[nH]c(C(=O)N[C@H](CO)c2cccc(Cl)c2)c1	3.326% and 7.634%		6.582% and 13.6138%		28.1046% and 23.9721%	23.785% and 21.0148%
O=C(O)CNC(=O)c1c(O)c2ccccc2n(Cc2ccccc2)c1=O	94.9232% and 53.396%	101.3% and 76.2347%	105.314% and 91.1128%	142.9% and 106.905%	116.47% and 93.4683%	109.318% and 89.1408%
